According to patent publication US20050096347A1, “Beta3-Adrenoreceptor agonists, agonist compositions and methods of using” (Molecular Design International, Inc., priority 1997, published 2005):
Like-named read-outs stand apart in the source and are kept apart here. Values belong to the compound of their own block, whether it stands above or below them.

Key:
rat-β3-AR [1] = molecular target: T1, rat-β3-AR (Rattus norvegicus, UniProt P26255); assay: Binding in CHO cells expressing rat β3-AR; settings: mean ± SEM (n in parentheses), read-out: pKi (−log Ki) for binding, rat-β3-AR (converted)
T1 construct: expressed in transfected cells; host or cells: CHO cells
T1 sequence (P26255 whole entry): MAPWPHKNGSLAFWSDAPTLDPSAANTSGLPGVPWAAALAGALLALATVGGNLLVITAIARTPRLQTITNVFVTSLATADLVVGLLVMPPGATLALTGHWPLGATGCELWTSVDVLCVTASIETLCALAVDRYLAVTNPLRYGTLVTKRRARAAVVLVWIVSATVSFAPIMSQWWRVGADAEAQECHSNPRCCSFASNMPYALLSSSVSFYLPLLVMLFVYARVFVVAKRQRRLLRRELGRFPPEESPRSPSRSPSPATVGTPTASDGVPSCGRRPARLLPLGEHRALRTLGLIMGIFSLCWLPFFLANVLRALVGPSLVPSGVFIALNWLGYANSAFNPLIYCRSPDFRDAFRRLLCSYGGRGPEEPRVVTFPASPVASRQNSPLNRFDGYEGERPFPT

[2] = molecular target: T2, Thromboxane A2/Prostaglandin H2 (TP) receptor (Homo sapiens, UniProt P21731); assay: Radioligand competition binding, TP receptor sites in human platelets ([3H]SQ 29,548); settings: for pKi ± SEM, Human TP receptors: [3H]SQ 29,548 as radioligand, platelets, N = 4-9; for P.R. (potency ratio), Human TP receptors: relative to cmpd. 1 (TMQ), PR = antilog [pKi(drug) − pKi(TMQ)]
T2 construct: endogenous in cells; host or cells: human platelets (from platelet rich plasma)
T2 sequence (P21731 1-343): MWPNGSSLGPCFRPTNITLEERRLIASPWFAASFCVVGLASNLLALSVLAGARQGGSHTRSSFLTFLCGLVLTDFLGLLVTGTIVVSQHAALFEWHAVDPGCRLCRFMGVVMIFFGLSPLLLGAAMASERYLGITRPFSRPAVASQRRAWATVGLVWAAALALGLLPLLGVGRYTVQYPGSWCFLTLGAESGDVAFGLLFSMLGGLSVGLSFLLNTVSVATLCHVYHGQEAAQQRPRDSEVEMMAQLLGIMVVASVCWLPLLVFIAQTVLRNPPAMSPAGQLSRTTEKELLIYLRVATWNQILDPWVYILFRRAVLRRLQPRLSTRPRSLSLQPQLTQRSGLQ
Description: For binding experiments, human platelet rich plasma (PRP) was centrifuged and re-suspended in 50 mM Tris-saline buffer, pH 7.4. […] Filters were placed in plastic scintillation vials containing 10 mL of an emulsion-type scintillation mixture and radioactivity measured by liquid scintillation spectrometry.

human β2 Adrenoreceptor = molecular target: T3, human β2 Adrenoreceptor (Homo sapiens, UniProt P07550); assay: Radioligand competition binding, human β2 adrenoreceptor expressed in CHO cells ([125I]ICYP); settings: for pKi ± SEM, Human β2 Adrenoreceptor CHO: [125I]ICYP as radioligand, N = 4-9; for P.R. (potency ratio), Human β2 Adrenoreceptor CHO: relative to cmpd. 1 (TMQ), PR = antilog [pKi(drug) − pKi(TMQ)]; for Ki: CHO cells (Table 8), read-out: hβ2 Binding ki
T3 construct: expressed in transfected cells
T3 sequence (P07550 whole entry): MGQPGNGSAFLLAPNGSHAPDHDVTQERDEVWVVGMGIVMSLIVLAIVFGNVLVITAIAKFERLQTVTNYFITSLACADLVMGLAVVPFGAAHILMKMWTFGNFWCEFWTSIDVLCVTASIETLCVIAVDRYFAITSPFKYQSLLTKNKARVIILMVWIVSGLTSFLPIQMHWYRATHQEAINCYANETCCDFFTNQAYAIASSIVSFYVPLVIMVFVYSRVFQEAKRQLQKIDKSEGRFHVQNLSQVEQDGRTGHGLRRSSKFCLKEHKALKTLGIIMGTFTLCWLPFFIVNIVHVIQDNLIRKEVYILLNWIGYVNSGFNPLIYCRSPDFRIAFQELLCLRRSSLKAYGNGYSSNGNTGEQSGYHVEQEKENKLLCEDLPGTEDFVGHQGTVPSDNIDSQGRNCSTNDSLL

rat-β3-AR [3] = molecular target: T1, rat-β3-AR; assay: cAMP accumulation in CHO cells expressing rat β3-AR; type: cell-based; settings: for Emax: read-out: Emax, maximal cAMP accumulation
Description: (§1) cAMP Radioimmunoassay (CAMP-RIA Assay). […] The precipitated protein was dissolved in 0.1N NaOH.

β2-AR = β2-AR (Rattus norvegicus, UniProt P10608); assay: Relaxation of carbachol-precontracted isolated rat tracheal strips; settings: maximal response relative to maximal response of (−)-isoproterenol
Sequence of β2-AR (P10608 whole entry): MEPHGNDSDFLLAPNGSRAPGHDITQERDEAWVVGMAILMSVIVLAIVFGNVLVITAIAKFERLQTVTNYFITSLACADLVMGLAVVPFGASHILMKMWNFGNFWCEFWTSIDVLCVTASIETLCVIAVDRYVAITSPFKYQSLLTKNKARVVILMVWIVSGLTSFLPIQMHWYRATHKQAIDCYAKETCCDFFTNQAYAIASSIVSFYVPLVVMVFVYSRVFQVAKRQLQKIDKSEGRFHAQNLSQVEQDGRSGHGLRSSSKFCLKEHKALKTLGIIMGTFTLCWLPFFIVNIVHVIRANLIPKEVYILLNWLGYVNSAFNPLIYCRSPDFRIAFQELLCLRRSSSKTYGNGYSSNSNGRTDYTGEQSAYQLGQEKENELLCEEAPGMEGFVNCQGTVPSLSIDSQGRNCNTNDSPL
Description: (§2) Male Sprague Dawley rats (Harlan Industries, Cumberland, Ind.) housed under a 12 hour light/dark cycle and fed Purina Rodent Laboratory Chow (Ralston Purina., St. Louis, Mo.) and water ad libitum, were used for the studies. […] All tissues were suspended and equilibrated in modified Kreb's buffer in water-jacketed baths at 37° C. Resting tensions of 1 g for right atria, trachea and aorta, and of 200 mg for esophageal smooth muscle were used. All tissue responses were measured on a Grass Polygraph Model 7C with a Grass FT-03C isometric force-displacement transducer.
(§3) Carbachol-precontracted tissues were included as controls through the duration of relaxation studies.

Atypical-β/β3-AR = Atypical-β/β3-AR (Rattus norvegicus, UniProt P26255); assay: Relaxation of carbachol-precontracted rat esophageal smooth muscle; settings: maximal response relative to maximal response of (−)-isoproterenol
Sequence of Atypical-β/β3-AR (P26255 whole entry): as the sequence (P26255 whole entry) above
Description: as §2, §3

Human β3-AR = Human β3-AR (Homo sapiens, UniProt P13945); assay: cAMP radioimmunoassay (cAMP-RIA), CHO cells expressing human β3-AR; type: cell-based; set-up: expressed in transfected cells; settings: for I.A., Human β3-AR, cAMP-RIA assay: percentage of maximal response of R-(−)-isoproterenol (100%)
Sequence of Human β3-AR (P13945 whole entry): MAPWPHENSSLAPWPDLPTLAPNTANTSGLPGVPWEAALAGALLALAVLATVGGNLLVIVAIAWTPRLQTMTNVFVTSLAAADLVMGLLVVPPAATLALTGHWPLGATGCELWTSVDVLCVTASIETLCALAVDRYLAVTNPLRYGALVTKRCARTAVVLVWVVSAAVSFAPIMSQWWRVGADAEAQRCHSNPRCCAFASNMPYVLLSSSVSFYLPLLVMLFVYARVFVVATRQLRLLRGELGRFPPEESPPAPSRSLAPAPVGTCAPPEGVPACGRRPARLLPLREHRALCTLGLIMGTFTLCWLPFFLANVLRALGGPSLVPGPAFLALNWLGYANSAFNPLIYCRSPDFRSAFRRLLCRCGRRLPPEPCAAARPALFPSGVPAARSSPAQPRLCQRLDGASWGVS
Description: as §1

human β1 Adrenoreceptor = human β1 Adrenoreceptor (Homo sapiens, UniProt P08588); assay: Radioligand competition binding, human β1 adrenoreceptor expressed in CHO cells ([125I]ICYP)
Sequence of human β1 Adrenoreceptor (P08588 whole entry): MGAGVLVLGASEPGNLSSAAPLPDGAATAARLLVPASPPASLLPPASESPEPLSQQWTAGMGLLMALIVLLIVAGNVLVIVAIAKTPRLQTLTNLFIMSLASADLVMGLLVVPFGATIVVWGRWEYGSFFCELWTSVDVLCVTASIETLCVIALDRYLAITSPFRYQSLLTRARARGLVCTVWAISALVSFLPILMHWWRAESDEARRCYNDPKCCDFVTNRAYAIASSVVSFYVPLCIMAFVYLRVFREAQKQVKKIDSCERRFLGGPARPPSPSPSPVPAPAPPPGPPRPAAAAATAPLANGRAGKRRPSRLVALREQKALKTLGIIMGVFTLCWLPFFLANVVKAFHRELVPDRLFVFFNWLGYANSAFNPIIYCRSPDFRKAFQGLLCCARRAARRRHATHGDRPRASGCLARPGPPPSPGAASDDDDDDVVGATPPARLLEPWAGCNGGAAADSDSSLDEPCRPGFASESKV
Description: Competitive and comparative binding experiments on β1 Adrenoreceptors, β2 Adrenoreceptors and β3-Adrenoreceptors expressed in CHO cells were performed as described previously. […] CHO cells grown to a confluence in 150-mL flasks were detached into Ham's F-12 medium after treatment with 0.05% trypsin-0.53 mM EDTA solution. The cells were then pelleted and washed three times with Tris-EDTA buffer (50 mM Tris-HCl, 150 mM NaCl, 20 mM EDTA, pH 7.4) and resuspended in the same buffer.
Competition binding experiments were performed in duplicates using these whole cells. […] The final volume in each tube was 0.25 mL. Nonspecific binding (5-30%) was determined in the presence of 1 μM (±)-propranolol. Incubations were carried out for 60 min at 37° C. Binding reactions were terminated by rapid filtration through Whatman GF/B glass fiber filters on a Brandel model 12-R tissue harvester. Filters were washed twice with ice cold Tris-EDTA buffer to remove free ICYP. The filters were dried under tissue harvester vacuum and radioactivity was measured by gamma scintillation spectrometry (Beckman model 8000 gamma counter, Palo Alto, Calif.). Specific binding to β Adrenoreceptor sites in these cells varied from 94 to 100%
Inhibitory concentration-50 (IC50) value of each competing drug was determined graphically from individual plots of percent radioligand bound versus log drug concentration on O-adrenoceptors and human platelets. […] Dissociation constants (Ki) for each competing drug were calculated using the equation: [formula] and the data expressed as pKi (i.e., −log Ki) values.

Human β3 Adrenoreceptors = molecular target: T4, Human β3 Adrenoreceptors (Homo sapiens, UniProt P13945); assay: hβ3 cAMP functional activity in CHO cells expressing human β3 adrenoreceptors (Table 8); type: cell-based; settings: for EC50: read-out: hβ3 cAMP EC50(nM) +/−SEM
T4 construct: expressed in transfected cells
T4 sequence (P13945 whole entry): as the sequence (P13945 whole entry) above

Human β1-AR = Human β1-AR (Homo sapiens, UniProt P08588); assay: cAMP radioimmunoassay (cAMP-RIA), CHO cells expressing human β1-AR; type: cell-based; set-up: expressed in transfected cells; settings: percentage of maximal response of R-(−)-isoproterenol (100%)
Sequence of Human β1-AR (P08588 whole entry): as the sequence (P08588 whole entry) above
Description: as §1

human β3-Adrenoreceptor = molecular target: T5, human β3-Adrenoreceptor (Homo sapiens, UniProt P13945); assay: Radioligand competition binding, human β3 adrenoreceptor expressed in CHO cells ([125I]ICYP); settings: N = 3-9 (Table 5)
T5 construct: expressed in transfected cells
T5 sequence (P13945 whole entry): as the sequence (P13945 whole entry) above

[4] = CHO cells, [125I]ICYP, N = 3-9 (Table 5)

SMILES: I.O=C(Nc1ccc(CC2NCCc3cc(O)c(O)cc32)cc1I)c1ccccc1 (centres unmarked) [Compound 26b, 1-(4-Benzoylamino-3-iodobenzyl)-6,7-dihydroxy-1,2,3,4-tetrahydroisoquinoline Hydroiodide]
pKi ± SEM, Human TP receptors [2]: 5.27 ± 0.13
P.R. (potency ratio), Human TP receptors [2]: 0.03
pKi ± SEM, Human β2 Adrenoreceptor CHO (human β2 Adrenoreceptor): 8.70
P.R. (potency ratio), Human β2 Adrenoreceptor CHO (human β2 Adrenoreceptor): 22

SMILES: CC(C)NC[C@H](O)c1ccc(O)c(O)c1 (single isomer, unassigned) [(−)Isoproterenol, isoproterenol, reference compound]
Emax (rat-β3-AR [3]; CHO): 100%
I.A. (intrinsic activity), Trachea (β2-AR): 1.00
I.A. (intrinsic activity), Esophageal Smooth Muscle (Atypical-β/β3-AR) (Atypical-β/β3-AR): 1.00
I.A., Human β3-AR, cAMP-RIA assay (Human β3-AR): 100%

SMILES: COc1cc(CC2NCCc3cc(O)c(O)cc32)cc(OC)c1OC (centres unmarked)
EC50 (Human β3 Adrenoreceptors): < 1 nM

SMILES: COc1c(I)cc(CC2NCCc3nc(NC(C)=O)sc32)cc1I.O=C(O)/C=C\C(=O)O (centres unmarked) [Compound 10]
I.A. ± SEM, Human β1-AR, cAMP-RIA assay (Human β1-AR): <10%
I.A., Human β3-AR, cAMP-RIA assay (Human β3-AR): <10%

SMILES: Br.Oc1cc2c(cc1O)C(Cc1cc(I)c(O)c(I)c1)NCC2 (centres unmarked) [Compound 18, 6,7-Dihydroxy-1-(4-hydroxy-3,5-diiodobenzyl)-1,2,3,4-tetrahydroisoquinoline Hydrobromide]
pKi ± SEM, Human TP receptors [2]: 4.72
pKi ± SEM, Human β2 Adrenoreceptor CHO (human β2 Adrenoreceptor): 7.93

SMILES: Cl.Oc1cc2c(cc1O)C(Cc1cc(C(F)(F)F)cc(C(F)(F)F)c1)NCC2 (centres unmarked) [Compound 27, 1-(3,5-Bis-trifluoromethylbenzyl)-6,7-dihydroxy-1,2,3,4-tetrahydroisoquinoline Hydrochloride]
pKi ± SEM, Human TP receptors [2]: 4.08 ± 0.02
P.R. (potency ratio), Human TP receptors [2]: 0.002
pKi ± SEM, Human β2 Adrenoreceptor CHO (human β2 Adrenoreceptor): 5.36
P.R. (potency ratio), Human β2 Adrenoreceptor CHO (human β2 Adrenoreceptor): 0.01

SMILES: COc1cc(CC2NCCc3nc(N)sc32)cc(OC)c1OC.Cl.Cl (centres unmarked) [7 (B-29), 2-Amino-4-(3′,4′,5′-trimethoxyphenylmethyl)-4,5,6,7-tetrahydro-thiazolo[5,4-c]pyridine Dihydrochloride]
pKi ± SEM, Human β2-AR (human β2 Adrenoreceptor; [4]): 6.21 ± 0.12
pKi ± SEM, Human β1-AR (human β1 Adrenoreceptor; [4]): 5.21 ± 0.08
I.A. ± SEM, Human β1-AR, cAMP-RIA assay (Human β1-AR): <10%
pKi ± SEM, Human β3-AR (human β3-Adrenoreceptor): 4.17 ± 0.05
EC50 (Human β3-AR; CHO cells, N.A. = Not active at 100 μM, N = 4-12, read-out: pKact ± SEM, Human β3-AR, cAMP-RIA assay (converted)): 8.71 µM
I.A., Human β3-AR, cAMP-RIA assay (Human β3-AR): 54 ± 1%

More lines, now with the values ahead:

Ki (rat-β3-AR [1]): 0.724 µM
fold reduction in TP receptor binding affinity compared to 2 [2]: 3 fold
pKi ± SEM, Human TP receptors [2]: 6.73
P.R. (potency ratio), Human TP receptors [2]: 0.87
pKi ± SEM, Human β2 Adrenoreceptor CHO (human β2 Adrenoreceptor): 8.81
P.R. (potency ratio), Human β2 Adrenoreceptor CHO (human β2 Adrenoreceptor): 28
SMILES: Cl.Cl.Nc1c(I)cc(CC2NCCc3cc(O)c(O)cc32)cc1I (centres unmarked) [Compound 21c, 1-(4-Amino-3,5-diiodobenzyl)-6,7-dihydroxy-1,2,3,4-tetrahydroisoquinoline Dihydrochloride]

Ki (human β2 Adrenoreceptor): 0.047 µM
Ki (human β1 Adrenoreceptor): 0.278 µM
hβ3 cAMP % Iso +/−SEM (Human β3 Adrenoreceptors): 89 +/− 5 % Iso
EC50 (Human β3 Adrenoreceptors): 33.5 nM
SMILES: COc1c(I)cc(CC2NCCc3cc(O)ccc32)cc1I (centres unmarked) [drawing 83]

Ki (human β1 Adrenoreceptor): 0.0634 µM
hβ3 cAMP % Iso +/−SEM (Human β3 Adrenoreceptors): 108 +/− 2 % Iso
EC50 (Human β3 Adrenoreceptors): < 4 nM
SMILES: Nc1c(I)cc(CC2NCCc3cc(O)c(O)cc32)cc1I (centres unmarked)

Ki (rat-β3-AR [1]): 1.58 µM
EC50 (rat-β3-AR [3]; CHO cells, mean ± SEM (n in parentheses), read-out: pKact (−log EC50) for cAMP accumulation, rat-β3-AR (converted)): 0.00182 µM
Emax (rat-β3-AR [3]; relative to that of (−)-isoproterenol, CHO cells expressing rat-β3-AR): 97.7 ± 5.85%
SMILES: Oc1cc2c(cc1O)C(Cc1cc(I)cc(I)c1)NCC2 (centres unmarked) [DemethoxyDITMQ]

Ki (human β2 Adrenoreceptor): 0.0031 µM
EC50 (Human β3 Adrenoreceptors): < 4 nM
SMILES: COc1c(I)cc(CC2NCCc3cc(O)c(O)cc32)cc1I (centres unmarked) [drawing 80]
